Test [1] has as its target T1, human Kv1.3 voltage-gated K+ channel (Homo sapiens, UniProt P22001).
T1 construct: host or cells: CHO-DUKX
In words: cell-based. The conditions noted are these: inhibition of thallium flux, CHO-DUKX cells with human Kv1.3; read-out: IC50.

The target in a further test is Rat whole blood (Rattus norvegicus, UniProt P15384).

Results on 8 compounds are retold here after patent US11780893B2, “Kv1.3 blockers” (Zealand Pharma A/S, priority 2019, dated 2023).

SMILES strings stand for the structures. Where two headings read alike, the source gives them in different places. Bridge positions count the residues as written; N and C are the ends. Square brackets hold non-standard residues; d marks the D form. Peptide text beside a SMILES is read from it. Phe(4-F) = N[C@@H](Cc1ccc(F)cc1)C(=O)O; Nle = CCCC[C@H](N)C(=O)O Bounds are passed on as bounds.

Chain of Rat whole blood (P15384 whole entry): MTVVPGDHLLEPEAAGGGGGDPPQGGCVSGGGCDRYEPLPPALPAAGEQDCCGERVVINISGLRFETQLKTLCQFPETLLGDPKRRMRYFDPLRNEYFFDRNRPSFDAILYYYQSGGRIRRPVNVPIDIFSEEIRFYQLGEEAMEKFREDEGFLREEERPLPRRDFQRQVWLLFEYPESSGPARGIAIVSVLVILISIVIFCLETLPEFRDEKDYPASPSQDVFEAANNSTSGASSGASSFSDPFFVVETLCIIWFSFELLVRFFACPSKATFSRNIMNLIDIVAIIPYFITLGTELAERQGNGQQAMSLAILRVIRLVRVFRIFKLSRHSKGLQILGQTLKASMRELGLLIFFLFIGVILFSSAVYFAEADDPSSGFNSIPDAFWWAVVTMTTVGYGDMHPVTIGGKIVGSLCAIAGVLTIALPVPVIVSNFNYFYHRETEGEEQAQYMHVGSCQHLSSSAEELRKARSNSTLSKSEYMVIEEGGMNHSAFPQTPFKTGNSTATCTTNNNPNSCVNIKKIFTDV
T1 sequence (P22001 whole entry): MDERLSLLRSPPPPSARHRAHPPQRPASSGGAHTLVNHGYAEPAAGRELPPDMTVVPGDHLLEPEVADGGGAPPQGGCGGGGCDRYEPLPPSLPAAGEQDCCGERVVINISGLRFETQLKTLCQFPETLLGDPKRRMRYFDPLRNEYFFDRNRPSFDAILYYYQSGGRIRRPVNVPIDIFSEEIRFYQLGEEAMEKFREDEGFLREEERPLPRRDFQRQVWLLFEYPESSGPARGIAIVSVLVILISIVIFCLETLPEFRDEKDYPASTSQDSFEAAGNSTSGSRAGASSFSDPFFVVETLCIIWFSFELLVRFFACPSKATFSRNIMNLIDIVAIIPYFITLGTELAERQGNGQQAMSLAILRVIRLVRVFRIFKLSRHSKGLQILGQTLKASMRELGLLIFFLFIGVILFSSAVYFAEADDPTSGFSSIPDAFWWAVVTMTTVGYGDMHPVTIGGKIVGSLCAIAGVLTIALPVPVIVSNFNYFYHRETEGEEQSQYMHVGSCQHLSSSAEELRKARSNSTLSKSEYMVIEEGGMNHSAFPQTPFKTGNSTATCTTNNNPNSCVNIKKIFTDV

In general, IC50 refers to the midpoint of a concentration-inhibition curve. Take `CCCC[C@H](NC(=O)[C@H](CC(=O)O)NC(=O)[C@H](CCCC)NC(=O)[C@@H](N)CO)C(=O)N[C@@H](CCCNC(=N)N)C(=O)N[C@H]1CSSC[C@@H]2NC(=O)[C@H](CCCCN)NC(=O)CNC(=O)[C@H](Cc3ccccc3)NC(=O)[C@H]([C@@H](C)CC)NC(=O)[C@H](CO)NC(=O)CNC(=O)[C@H]([C@@H](C)CC)NC(=O)[C@H](C)NC(=O)[C@H](CCCCN)NC(=O)[C@H](CC(C)C)NC(=O)[C@@H]3CSSC[C@@H](C(=O)N[C@@H](Cc4ccc(F)cc4)C(=O)N4CCC[C@H]4C(=O)N[C@@H](CCCNC(=N)N)C(N)=O)NC(=O)[C@H](CCCCN)NC(=O)[C@H](CSSC[C@H](NC(=O)[C@H](CCC(=O)O)NC(=O)[C@H](C(C)C)NC(=O)[C@H](CO)NC(=O)[C@H](C)NC(=O)[C@H](CO)NC1=O)C(=O)N[C@@H](CCCCN)C(=O)N[C@@H](CCC(N)=O)C(=O)N[C@@H](CCCCN)C(=O)N3)NC(=O)[C@H](CCCCN)NC(=O)[C@H](CCCCN)NC(=O)[C@H](CC(N)=O)NC(=O)[C@H](CCSC)NC2=O` [Compound 91] (H-S[Nle]D[Nle]RCSASVECKQKCLKAIGSIFGKCMNKKCKC[Phe(4-F)]PR-NH2; disulfide 6-27, 12-32, 16-34): the IC50 in test [1] was 0.1 nM; at Rat whole blood, at most 1 nM; at Rat whole blood (inhibition of IL-17A release, thapsigargin, 24 Hr, at least 2 replicates), 0.34 nM.

`CCCC[C@H](NC(=O)[C@H](CC(=O)O)NC(=O)[C@H](CCCC)NC(=O)[C@@H](N)CO)C(=O)N[C@@H](CCCNC(=N)N)C(=O)N[C@H]1CSSC[C@@H]2NC(=O)[C@H](CCCCN)NC(=O)CNC(=O)[C@H](Cc3ccccc3)NC(=O)[C@H]([C@@H](C)CC)NC(=O)[C@H](CO)NC(=O)CNC(=O)[C@H]([C@@H](C)CC)NC(=O)[C@H](C)NC(=O)[C@H](CCCCN)NC(=O)[C@H](CC(C)C)NC(=O)[C@@H]3CSSC[C@@H](C(=O)N[C@@H](Cc4ccc(O)cc4)C(=O)N4CCC[C@H]4C(=O)N[C@@H](CCCNC(=N)N)C(N)=O)NC(=O)[C@H](CCCNC(=N)N)NC(=O)[C@H](CSSC[C@H](NC(=O)[C@H](CCC(=O)O)NC(=O)[C@H](C(C)C)NC(=O)[C@H](CO)NC(=O)[C@H](C)NC(=O)[C@H](CO)NC1=O)C(=O)N[C@@H](CCCCN)C(=O)N[C@@H](CCC(N)=O)C(=O)N[C@@H](CCCCN)C(=O)N3)NC(=O)[C@H](CCCCN)NC(=O)[C@H](CCCCN)NC(=O)[C@H](CC(N)=O)NC(=O)[C@H](CCSC)NC2=O` [Compound 75] displayed an IC50 on Rat whole blood of at most 1 nM.

For the compound `CC[C@H](C)[C@@H]1NC(=O)[C@H](CO)NC(=O)CNC(=O)[C@H](C)NC(=O)[C@H](CCCCN)NC(=O)[C@H](CC(C)C)NC(=O)[C@@H]2CSSC[C@@H](C(=O)N[C@@H](Cc3ccc(O)cc3)C(=O)N3CCC[C@H]3C(=O)N[C@@H](CCCNC(=N)N)C(N)=O)NC(=O)[C@H](CCCCN)NC(=O)[C@@H]3CSSC[C@H](NC(=O)[C@H](CCC(=O)O)NC(=O)[C@H](C(C)C)NC(=O)[C@H](CO)NC(=O)[C@H](C)NC(=O)[C@H](CO)NC(=O)[C@@H](NC(=O)[C@H](CCCNC(=N)N)NC(=O)[C@H](CCSC)NC(=O)[C@H](CC(=O)O)NC(=O)[C@H](CCSC)NC(=O)[C@@H](N)CC(N)=O)CSSC[C@H](NC(=O)[C@H](CCCCN)NC(=O)CNC(=O)[C@H](Cc4ccccc4)NC1=O)C(=O)N[C@@H](CCSC)C(=O)N[C@@H](CC(N)=O)C(=O)N[C@@H](CCCCN)C(=O)N[C@@H](CCCCN)C(=O)N3)C(=O)N[C@@H](CCCCN)C(=O)N[C@@H](CCC(N)=O)C(=O)N[C@@H](CCCCN)C(=O)N2` [Compound 61] (H-NMDMRCSASVECKQKCLKAGSIFGKCMNKKCKCYPR-NH2; disulfide 6-26, 12-31, 16-33), in test [1], the IC50 is 0.4 nM.

For `CCCC[C@H](NC(=O)[C@@H]1CCCN1)C(=O)N[C@@H](CCC(=O)O)C(=O)N[C@@H](CCCC)C(=O)N[C@@H](CCCNC(=N)N)C(=O)N[C@H]1CSSC[C@@H]2NC(=O)[C@H](CCCCN)NC(=O)CNC(=O)[C@H](Cc3ccccc3)NC(=O)[C@H]([C@@H](C)CC)NC(=O)[C@H](CO)NC(=O)CNC(=O)[C@H]([C@@H](C)CC)NC(=O)[C@H](C)NC(=O)[C@H](C)NC(=O)[C@H](CC(C)C)NC(=O)[C@@H]3CSSC[C@@H](C(=O)N[C@@H](Cc4ccc(O)cc4)C(=O)N4CCC[C@H]4C(=O)N[C@@H](CCCNC(=N)N)C(=O)O)NC(=O)[C@H](CCCCN)NC(=O)[C@H](CSSC[C@H](NC(=O)[C@H](CCC(=O)O)NC(=O)[C@H](C(C)C)NC(=O)[C@H](CO)NC(=O)[C@H](C)NC(=O)[C@H](Cc4ccccc4)NC1=O)C(=O)N[C@@H](CCCCN)C(=O)N[C@@H](CCC(N)=O)C(=O)N[C@@H](CCCCN)C(=O)N3)NC(=O)[C@H](CCCCN)NC(=O)[C@H](CCCCN)NC(=O)[C@H](CC(N)=O)NC(=O)[C@H](CCCC)NC2=O` [Compound 143] (H-P[Nle]E[Nle]RCFASVECKQKCLAAIGSIFGKC[Nle]NKKCKCYPR-OH; disulfide 6-27, 12-32, 16-34), the IC50 in test [1] is 0.316 nM.

`CCCC[C@H](NC(=O)[C@@H]1CCCN1)C(=O)N[C@@H](CCC(=O)O)C(=O)N[C@@H](CCCC)C(=O)N[C@@H](CCCNC(=N)N)C(=O)N[C@H]1CSSC[C@@H]2NC(=O)[C@H](CCCCN)NC(=O)CNC(=O)[C@H](Cc3ccccc3)NC(=O)[C@H]([C@@H](C)CC)NC(=O)[C@H](CO)NC(=O)CNC(=O)[C@H]([C@@H](C)CC)NC(=O)[C@H](C)NC(=O)[C@H](C)NC(=O)[C@H](CC(C)C)NC(=O)[C@@H]3CSSC[C@@H](C(=O)N[C@@H](Cc4ccc(O)cc4)C(=O)N4CCC[C@H]4C(=O)N[C@@H](CCCNC(=N)N)C(=O)N[C@@H](Cc4ccc(O)cc4)C(=O)O)NC(=O)[C@H](CCCCN)NC(=O)[C@H](CSSC[C@H](NC(=O)[C@H](CCC(=O)O)NC(=O)[C@H](C(C)C)NC(=O)[C@H](CO)NC(=O)[C@H](C)NC(=O)[C@H](CO)NC1=O)C(=O)N[C@@H](CCCCN)C(=O)N[C@@H](CCC(N)=O)C(=O)N[C@@H](CCCCN)C(=O)N3)NC(=O)[C@H](CCCCN)NC(=O)[C@H](CCCCN)NC(=O)[C@H](CC(N)=O)NC(=O)[C@H](CCCC)NC2=O` [Compound 123] (H-P[Nle]E[Nle]RCSASVECKQKCLAAIGSIFGKC[Nle]NKKCKCYPRY-OH; disulfide 6-27, 12-32, 16-34): the 50% inhibitory concentration (IC50) in test [1] amounted to 1.04 nM.

Consider `CCCC[C@H](NC(=O)[C@@H]1CCCN1)C(=O)N[C@@H](CCC(=O)O)C(=O)N[C@@H](CCCC)C(=O)N[C@@H](CCCNC(=N)N)C(=O)N[C@H]1CSSC[C@@H]2NC(=O)[C@H](CCCCN)NC(=O)CNC(=O)[C@H](Cc3ccccc3)NC(=O)[C@H]([C@@H](C)CC)NC(=O)[C@H](CO)NC(=O)CNC(=O)[C@H]([C@@H](C)CC)NC(=O)[C@H](C)NC(=O)[C@H](C)NC(=O)[C@H](CC(C)C)NC(=O)[C@@H]3CSSC[C@@H](C(=O)N[C@@H](Cc4ccc(O)cc4)C(=O)N4CCC[C@H]4C(=O)N[C@@H](CCCNC(=N)N)C(=O)O)NC(=O)[C@H](CCCCN)NC(=O)[C@H](CSSC[C@H](NC(=O)[C@H](CCC(=O)O)NC(=O)[C@H](C(C)C)NC(=O)[C@@H]4CCCN4C(=O)[C@H](C)NC(=O)[C@H](CO)NC1=O)C(=O)N[C@@H](CCCCN)C(=O)N[C@@H](CCC(N)=O)C(=O)N[C@@H](CCCCN)C(=O)N3)NC(=O)[C@H](CCCCN)NC(=O)[C@H](CCCCN)NC(=O)[C@H](CC(N)=O)NC(=O)[C@H](CCCC)NC2=O` [Compound 137] (H-P[Nle]E[Nle]RCSAPVECKQKCLAAIGSIFGKC[Nle]NKKCKCYPR-OH; disulfide 6-27, 12-32, 16-34), for which, in test [1], the IC50 turned out to be 0.333 nM.

Regarding `CCCC[C@@H]1NC(=O)[C@@H]2CSSC[C@H](NC(C)=O)C(=O)N[C@@H](CO)C(=O)N[C@@H](C)C(=O)N[C@@H](CO)C(=O)N[C@@H](C(C)C)C(=O)N[C@@H](CCC(=O)O)C(=O)N[C@H]3CSSC[C@H](NC(=O)[C@H](CCCCN)NC(=O)[C@H](CCCCN)NC(=O)[C@H](CC(N)=O)NC1=O)C(=O)N[C@@H](CCCCN)C(=O)N[C@H](C(=O)N[C@@H](Cc1ccc(O)cc1)C(N)=O)CSSC[C@H](NC(=O)[C@H](CCCCN)NC(=O)[C@H](CCC(N)=O)NC(=O)[C@H](CCCCN)NC3=O)C(=O)N[C@@H](CC(C)C)C(=O)N[C@@H](CCCCN)C(=O)N[C@@H](C)C(=O)N[C@@H]([C@@H](C)CC)C(=O)NCC(=O)N[C@@H](CO)C(=O)N[C@@H]([C@@H](C)CC)C(=O)N[C@@H](Cc1ccccc1)C(=O)NCC(=O)N[C@@H](CCCCN)C(=O)N2` [Compound 112] (Ac-CSASVECKQKCLKAIGSIFGKC[Nle]NKKCKCY-NH2; disulfide 1-22, 7-27, 11-29), the IC50 in test [1] was found to be 1.7 nM.

As to `CCCC[C@H](NC(=O)[C@@H]1CCCN1)C(=O)N[C@@H](CCC(=O)O)C(=O)N[C@@H](CCCC)C(=O)N[C@@H](CCCNC(=N)N)C(=O)N[C@H]1CSSC[C@@H]2NC(=O)[C@H](CCCCN)NC(=O)CNC(=O)[C@H](Cc3ccccc3)NC(=O)[C@H]([C@@H](C)CC)NC(=O)[C@H](CO)NC(=O)CNC(=O)[C@H]([C@@H](C)CC)NC(=O)[C@H](C)NC(=O)[C@H](C)NC(=O)[C@H](CC(C)C)NC(=O)[C@@H]3CSSC[C@@H](C(=O)N[C@@H](Cc4ccc(O)cc4)C(=O)N4CCC[C@H]4C(=O)N[C@@H](CCCNC(=N)N)C(=O)N[C@@H](CCC(=O)O)C(=O)O)NC(=O)[C@H](CCCCN)NC(=O)[C@H](CSSC[C@H](NC(=O)[C@H](CCC(=O)O)NC(=O)[C@H](C(C)C)NC(=O)[C@H](CO)NC(=O)[C@H](C)NC(=O)[C@H](CO)NC1=O)C(=O)N[C@@H](CCCCN)C(=O)N[C@@H](CCC(N)=O)C(=O)N[C@@H](CCCCN)C(=O)N3)NC(=O)[C@H](CCCCN)NC(=O)[C@H](CCCCN)NC(=O)[C@H](CC(N)=O)NC(=O)[C@H](CCCC)NC2=O` [Compound 126] (H-P[Nle]E[Nle]RCSASVECKQKCLAAIGSIFGKC[Nle]NKKCKCYPRE-OH; disulfide 6-27, 12-32, 16-34), the IC50 in test [1] worked out at 6.49 nM.
